# Active and inactive are the calls of the source. No cut-off for these calls is given here.
# Key:
# HUVEC [1] = assay: Angiogenesis activity in human HUVEC cells assessed as suppression of cell migration using conditioned medium of mouse C2C12 cells treated at 30 uM under hyperglycemic condition for 12 hrs followed by hypoxia for 24 hrs by crystal violet dye based transwell assay; format: functional; conditions: time 36.0 hrs
# HUVEC [2] = assay: Induction proliferation of human HUVEC cells assessed as increase in number of EdU-positive cells using conditioned medium of mouse C2C12 cells with silenced HIF-1alpha treated at 30 uM under hyperglycemic condition for 12 hrs followed by hypoxia for 24 hrs by EdU-incorporation assay; format: functional, cell-based; conditions: time 36.0 hrs
# [3] = Metabolic stability in rat leg muscle homogenates assessed as compound remaining after 30 min by HPLC analysis; format: ADME, tissue-based, muscle of leg; conditions: read-out: Stability
# [4] = Permeability coefficient across apical to basolateral side in human Caco-2 cells by HPLC-UV analysis
# C2C12 [5] = assay: Reversal of hyperglycemia-induced VEGF-A protein level reduction in mouse C2C12 cells measured at 30 uM by ELISA; format: functional, cell-based
# Mus musculus [6] = assay: Antidiabetic activity in diabetic HLI C57BL/6 mouse model assessed as morphological changes at 100 mg/kg administered intramuscularly; format: functional, organism-based
# MOVAS-1 [7] = assay: Induction proliferation of mouse MOVAS-1 cells assessed as increase in number of EdU-positive cells using conditioned medium of mouse C2C12 cells treated at 30 uM under hyperglycemic condition for 12 hrs followed by hypoxia for 24 hrs by EdU-incorporation assay; format: functional; conditions: time 36.0 hrs
# C2C12 [8] = assay: Reversal of hyperglycemia-induced VEGF-A protein level reduction in mouse C2C12 cells measured at 30 uM by Western blot analysis; format: functional, cell-based
# MOVAS-1 [9] = assay: Angiogenesis activity in mouse MOVAS-1 cells assessed as suppression of cell migration using conditioned medium of mouse C2C12 cells treated at 30 uM under hyperglycemic condition for 12 hrs followed by hypoxia for 24 hrs by crystal violet dye based transwell assay; format: functional; conditions: time 36.0 hrs
# MOVAS-1 [10] = assay: Angiogenesis activity in mouse MOVAS-1 assessed as increase of cell migration using conditioned medium of mouse C2C12 cells with silenced HIF-1alpha treated at 30 uM under hyperglycemic condition for 12 hrs followed by hypoxia for 24 hrs by crystal violet dye based transwell assay; format: functional; conditions: time 36.0 hrs
# [11] = Permeability coefficient across basolateral to apical side in human Caco-2 cells by HPLC-UV analysis
# [12] = Octanol/Water partition coefficient, log P of the compound by HPLC-UV analysis
# Mus musculus [13] = assay: Angiogenesis activity in diabetic HLI C57BL/6 mouse model assessed as HIF-1alpha protein expression at 100 mg/kg, im administered for 21 days followed by surgery by Western blot analysis; format: functional, organism-based; conditions: time 21.0 day
# HUVEC [14] = assay: Induction proliferation of human HUVEC cells assessed as increase in number of EdU-positive cells using conditioned medium of mouse C2C12 cells treated at 30 uM under hyperglycemic condition for 12 hrs followed by hypoxia for 24 hrs by EdU-incorporation assay; format: functional; conditions: time 36.0 hrs
# Mus musculus [15] = assay: Antidiabetic activity in diabetic HLI C57BL/6 mouse model assessed as increase in blood perfusion recovery at 100 mg/kg administered intramuscularly; format: functional, organism-based
# [16] = Dissociation constant, pKa of compound by UV-visible spectrometric method; format: physicochemical
# HUVEC [17] = assay: Angiogenesis activity in human HUVEC cells assessed as increase of cell migration using conditioned medium of mouse C2C12 cells with silenced HIF-1alpha treated at 30 uM under hyperglycemic condition for 12 hrs followed by hypoxia for 24 hrs by crystal violet dye based transwell assay; format: functional; conditions: time 36.0 hrs
# [18] = Stability in rat plasma assessed as compound remaining at 6.25 to 25 mg/L after 12 hrs by HPLC analysis; format: ADME, cell-free; conditions: at 6.25 to 25 µg/mL, dose 6.25-25 mg/L, read-out: Stability
# C2C12 [19] = assay: Reversal of hyperglycemia-induced PDGF-BB protein level reduction in mouse C2C12 cells measured at 30 uM by ELISA; format: functional, cell-based
# MOVAS-1 [20] = assay: Angiogenic activity in mouse MOVAS-1 cells assessed as suppression of F-actin polymerization at 30 uM using conditioned medium of mouse C2C12 cells treated at 30 uM under hyperglycemic condition for 12 hrs followed by hypoxia for 12 hrs by phalloidin staining based confocal microscopy; format: functional, cell-based; conditions: time 24.0 hrs
# Mus musculus [21] = assay: Antidiabetic activity in diabetic HLI C57BL/6 mouse model assessed as effect on blood glucose level at 15 mg/kg administered intramuscular; format: functional, organism-based
# Mus musculus [22] = assay: Angiogenesis activity in diabetic HLI C57BL/6 mouse model assessed as PDGF-BB protein expression at 100 mg/kg, im administered for 21 days followed by surgery by Western blot analysis; format: functional, organism-based; conditions: time 21.0 day
# [23] = Water solubility of the compound by HPLC analysis
# [24] = Protein binding in human plasma by balanced dialysis method; format: ADME, cell-free; conditions: read-out: PPB (converted)
# C2C12 [25] = assay: Induction of F-actin polymerization in mouse C2C12 cells at 30 uM pretreated with compound for 12 hr followed by hypoxic condition for 24 hrs by phalloidin staining based confocal microscopy; format: functional, cell-based; conditions: time 36.0 hrs
# C2C12 [26] = assay: Reversal of hyperglycemia-induced PDGF-BB protein level reduction in mouse C2C12 cells measured at 30 uM by Western blot analysis; format: functional, cell-based
# HUVEC [27] = assay: Angiogenic activity in human HUVEC cells assessed as suppression of F-actin polymerization at 30 uM using conditioned medium of mouse C2C12 cells treated at 30 uM under hyperglycemic condition for 12 hrs followed by hypoxia for 12 hrs by phalloidin staining based confocal microscopy; format: functional, cell-based; conditions: time 24.0 hrs
# MOVAS-1 [28] = assay: Induction proliferation of mouse MOVAS-1 assessed as increase in number of EdU-positive cells using conditioned medium of mouse C2C12 cells with silenced HIF-1alpha treated at 30 uM under hyperglycemic condition for 12 hrs followed by hypoxia for 24 hrs by EdU-incorporation assay; format: functional, cell-based; conditions: time 36.0 hrs
# [29] = Microsomal stability in rat liver microsomes assessed as compound remaining after 30 min by HPLC analysis; format: ADME, Microsome; conditions: read-out: Stability
# C2C12 [30] = assay: Induction of cell migration in mouse C2C12 cells at 30 uM under hyperglycemic condition incubated for 24 hrs by crystal violet dye based transwell chamber assay; format: functional
# Mus musculus [31] = assay: Angiogenesis activity in diabetic HLI C57BL/6 mouse model assessed as VEGF-A protein expression at 100 mg/kg, im administered for 21 days followed by surgery by Western blot analysis; format: functional, organism-based; conditions: time 21.0 day
# [32] = Efflux ratio of Apparent permeability across basolateral to apical side over apical to basolateral side in human Caco-2 cells
smiles,measurement,setting,value
OC[C@H]1O[C@@H](OCCc2ccc(O)cc2)[C@H](O)[C@@H](O)[C@@H]1O [SALIDROSIDE],Activity,HUVEC [1],inactive
same,Activity,HUVEC [2],Active
same,remaining at 0.5 h,[3],35.8%
same,Papp A→B,[4],2.71 ×10⁻⁶ cm/s
same,Activity,C2C12 [5],Active
same,Activity,Mus musculus [6],Active
same,Activity,MOVAS-1 [7],Active
same,Activity,C2C12 [8],Active
same,Activity,MOVAS-1 [9],inactive
same,Activity,MOVAS-1 [10],Active
same,Papp B→A,[11],2.95 ×10⁻⁶ cm/s
same,logP,[12],-2.42
same,Activity,Mus musculus [13],Active
same,Activity,HUVEC [14],Active
same,Activity,Mus musculus [15],Active
same,pKa,[16],10.1
same,Activity,HUVEC [17],Active
same,remaining at 12 h,[18],99.4%
same,Activity,C2C12 [19],Active
same,Activity,MOVAS-1 [20],inactive
same,Activity,Mus musculus [21],Active
same,Activity,Mus musculus [22],Active
same,solubility,[23],472 mg/mL
same,fraction unbound,[24],0.873
same,Activity,C2C12 [25],Active
same,Activity,C2C12 [26],Active
same,Activity,HUVEC [27],inactive
same,Activity,MOVAS-1 [28],Active
same,remaining at 0.5 h,[29],43.3%
same,Activity,C2C12 [30],Active
same,Activity,Mus musculus [31],Active
same,efflux ratio,[32],1.09

# — ChEMBL document CHEMBL5038635, “Discovery of Salidroside-Derivated Glycoside Analogues as Novel Angiogenesis Agents to Treat Diabetic Hind Limb Ischemia” (J Med Chem, 2022)
